Structures are written as SMILES.

The target of this experiment is IgE-Tb / FcεRIα-Y131A-AF488 (Homo sapiens, UniProt P01854). In words: IgE-Tb / FcεRIα-Y131A-AF488 FRET assay (protocol for examples 1 to 233). The experiment is classed as binding. The conditions noted are these: examples 1 to 233: 5 nM IgE-Tb, 25 nM FcεRIα-Y131A-AF488, incubated 2 hours at room temperature; read-out: Y131A FRET IC50 range. An outline of the steps: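 Compounds (top final concentration usually 10 μM, 3-fold, 10 points, 2% DMSO) incubated 2 h at room temperature with IgE-Tb (5 nM) and FcεRIα-Y131A-AF488 (25 nM). Background from 200 nM unlabelled receptor subtracted; FRET ratio 520/495 nm after 330 nm excitation gave percent inhibition, fitted four-parameter for IC50.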
Chain of IgE-Tb / FcεRIα-Y131A-AF488 (P01854 1-427 limits assumed, stated change not applied): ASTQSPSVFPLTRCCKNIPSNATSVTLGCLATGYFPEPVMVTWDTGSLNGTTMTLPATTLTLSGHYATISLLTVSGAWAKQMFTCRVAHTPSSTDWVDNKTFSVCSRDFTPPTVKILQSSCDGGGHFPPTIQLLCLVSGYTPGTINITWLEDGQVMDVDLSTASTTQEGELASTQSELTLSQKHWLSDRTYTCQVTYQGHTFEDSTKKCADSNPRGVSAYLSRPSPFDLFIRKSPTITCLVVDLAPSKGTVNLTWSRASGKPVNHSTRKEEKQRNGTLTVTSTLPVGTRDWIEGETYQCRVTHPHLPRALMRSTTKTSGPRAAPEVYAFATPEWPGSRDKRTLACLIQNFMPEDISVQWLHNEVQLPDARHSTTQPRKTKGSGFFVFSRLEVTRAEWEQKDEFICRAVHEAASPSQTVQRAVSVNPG
`Cc1cc(N(C)c2nncn2[C@H]2CCc3sc(NC(=O)C4CC4)c(C(=O)NCC4CC4)c3C2)n(C)n1` [Example 214, (5S)-2-(cyclopropanecarbonylamino)-N-(cyclopropylmethyl)-5-[3-[(2,5-dimethylpyrazol-3-yl)-methyl-amino]-1,2,4-triazol-4-yl]-4,5,6,7-tetrahydrobenzothiophene-3-carboxamide]: the IC50 fell in the range of 1000 to 10000 nM. With `Cc1cc(Nc2nncn2[C@H]2CCc3sc(NC(=O)C4CC4)c(S(=O)(=O)NCC4CC4)c3C2)n(C)n1` [Example 215, N-[(5S)-3-(cyclopropylmethylsulfamoyl)-5-[3-[(2,5-dimethylpyrazol-3-yl)amino]-1,2,4-triazol-4-yl]-4,5,6,7-tetrahydrobenzothiophen-2-yl]cyclopropanecarboxamide] the figure was < 1000 nM.

In the case of `Cc1nnc(-c2ncn([C@H]3CCc4sc(NC(=O)C5CC5)c(C(=O)NCC5CC5)c4C3)c2N)o1` [Example 216, (5S)-5-[5-amino-4-(5-methyl-1,3,4-oxadiazol-2-yl)imidazol-1-yl]-2-(cyclopropanecarbonylamino)-N-(cyclopropylmethyl)-4,5,6,7-tetrahydrobenzothiophene-3-carboxamide], the IC50 was < 1000 nM. With `Cc1cc(Nc2nncn2[C@H]2CCc3sc(NC(=O)C4CC4)c(C(=O)NCC4CC4)c3C2)[nH]n1` [Example 217, (5S)-2-(cyclopropanecarbonylamino)-N-(cyclopropylmethyl)-5-[3-[(3-methyl-1H-pyrazol-5-yl)amino]-1,2,4-triazol-4-yl]-4,5,6,7-tetrahydrobenzothiophene-3-carboxamide] the figure was < 1000 nM. Next, `Cc1nn(C)cc1Nc1nncn1[C@H]1CCc2sc(NC(=O)C3CC3)c(C(=O)NCC3CC3)c2C1` [Example 218, (5S)-2-(cyclopropanecarbonylamino)-N-(cyclopropylmethyl)-5-[3-[(1,3-dimethylpyrazol-4-yl)amino]-1,2,4-triazol-4-yl]-4,5,6,7-tetrahydrobenzothiophene-3-carboxamide]: < 1000 nM; `Cn1nc(C2CC2)cc1Nc1nncn1[C@H]1CCc2sc(NC(=O)C3CC3)c(C(=O)NCC3CC3)c2C1` [Example 219, (5S)-2-(cyclopropanecarbonylamino)-N-(cyclopropylmethyl)-5-[3-[(5-cyclopropyl-2-methyl-pyrazol-3-yl)amino]-1,2,4-triazol-4-yl]-4,5,6,7-tetrahydrobenzothiophene-3-carboxamide]: < 1000 nM.

As for `CC(C)c1cc(Nc2nncn2[C@H]2CCc3sc(NC(=O)C4CC4)c(C(=O)NCC4CC4)c3C2)n(C)n1` [Example 220, (5S)-2-(cyclopropanecarbonylamino)-N-(cyclopropylmethyl)-5-[3-[(5-isopropyl-2-methyl-pyrazol-3-yl)amino]-1,2,4-triazol-4-yl]-4,5,6,7-tetrahydrobenzothiophene-3-carboxamide], the IC50 was < 1000 nM.

Take `Cn1nc(C(F)(F)F)cc1Nc1nncn1[C@H]1CCc2sc(NC(=O)C3CC3)c(C(=O)NCC3CC3)c2C1` [Example 221, (5S)-2-(cyclopropanecarbonylamino)-N-(cyclopropylmethyl)-5-[3-[[2-methyl-5-(trifluoromethyl)pyrazol-3-yl]amino]-1,2,4-triazol-4-yl]-4,5,6,7-tetrahydrobenzothiophene-3-carboxamide]: the IC50 was < 1000 nM. With `Cc1cc(Nc2nncn2[C@H]2CCc3sc(NC(=O)C4CC4)c(C(=O)NCC4CC4)c3C2)n(C(C)C)n1` [Example 222, (5S)-2-(cyclopropanecarbonylamino)-N-(cyclopropylmethyl)-5-[3-[(2-isopropyl-5-methyl-pyrazol-3-yl)amino]-1,2,4-triazol-4-yl]-4,5,6,7-tetrahydrobenzothiophene-3-carboxamide], the IC50 was < 1000 nM.

For `Cc1cc(Nc2nncn2[C@H]2CCc3sc(NC(=O)C4CC4)c(C(=O)NCC4CC4)c3C2)n(C2CCOC2)n1` (stereo partly drawn) [Example 223, (5S)-2-(cyclopropanecarbonylamino)-N-(cyclopropylmethyl)-5-[3-[(5-methyl-2-tetrahydrofuran-3-yl-pyrazol-3-yl)amino]-1,2,4-triazol-4-yl]-4,5,6,7-tetrahydrobenzothiophene-3-carboxamide], the IC50 was < 1000 nM. With `Cn1nccc1Nc1nncn1[C@H]1CCc2sc(NC(=O)C3CC3)c(C(=O)NCC3CC3)c2C1` [Example 224, (5S)-2-(cyclopropanecarbonylamino)-N-(cyclopropylmethyl)-5-[3-[(2-methylpyrazol-3-yl)amino]-1,2,4-triazol-4-yl]-4,5,6,7-tetrahydrobenzothiophene-3-carboxamide] the figure was < 1000 nM; with `CCn1nc(C)cc1Nc1nncn1[C@H]1CCc2sc(NC(=O)C3CC3)c(C(=O)NCC3CC3)c2C1` [Example 225, (5S)-2-(cyclopropanecarbonylamino)-N-(cyclopropylmethyl)-5-[3-[(2-ethyl-5-methyl-pyrazol-3-yl)amino]-1,2,4-triazol-4-yl]-4,5,6,7-tetrahydrobenzothiophene-3-carboxamide], < 1000 nM. On to `Cc1cc(Nc2nncn2[C@H]2CCc3sc(NC(=O)C4CC4)c(C(=O)NCC4CC4)c3C2)n(C2CC2)n1` [Example 226, (5S)-2-(cyclopropanecarbonylamino)-N-(cyclopropylmethyl)-5-[3-[(2-cyclopropyl-5-methyl-pyrazol-3-yl)amino]-1,2,4-triazol-4-yl]-4,5,6,7-tetrahydrobenzothiophene-3-carboxamide], for which the IC50 is < 1000 nM. With `COc1nn(C)cc1Nc1nncn1[C@H]1CCc2sc(NC(=O)C3CC3)c(C(=O)NCC3CC3)c2C1` [Example 227, (5S)-2-(cyclopropanecarbonylamino)-N-(cyclopropylmethyl)-5-[3-[(3-methoxy-1-methy-pyrazol-4-yl)amino]-1,2,4-triazol-4-yl]-4,5,6,7-tetrahydrobenzothiophene-3-carboxamide] the figure was < 1000 nM; with `CCc1cc(Nc2nncn2[C@H]2CCc3sc(NC(=O)C4CC4)c(C(=O)NCC4CC4)c3C2)n(C)n1` [Example 228, (5S)-2-(cyclopropanecarbonylamino)-N-(cyclopropylmethyl)-5-[3-[(5-ethyl-2-methyl-pyrazol-3-yl)amino]-1,2,4-triazol-4-yl]-4,5,6,7-tetrahydrobenzothiophene-3-carboxamide], < 1000 nM; with `Cn1nc(C(F)F)cc1Nc1nncn1[C@H]1CCc2sc(NC(=O)C3CC3)c(C(=O)NCC3CC3)c2C1` [Example 229, (5S)-2-(Cyclopropanecarbonylamino)-N-(cyclopropylmethyl)-5-[3-[[5-(difluoromethyl)-2-methyl-pyrazol-3-yl]amino]-1,2,4-triazol-4-yl]-4,5,6,7-tetrahydrobenzothiophene-3-carboxamide], < 1000 nM. Next, `Cc1cn(C)nc1Nc1nncn1[C@H]1CCc2sc(NC(=O)C3CC3)c(C(=O)NCC3CC3)c2C1` [Example 230, (5S)-2-(Cyclopropanecarbonylamino)-N-(cyclopropylmethyl)-5-[3-[(1,4-dimethylpyrazol-3-yl)amino]-1,2,4-triazol-4-yl]-4,5,6,7-tetrahydrobenzothiophene-3-carboxamide]: < 1000 nM; `COC(=O)c1cc(Nc2nncn2[C@H]2CCc3sc(NC(=O)C4CC4)c(C(=O)NCC4CC4)c3C2)n(C)n1` [Example 231, Methyl 5-[[4-[(5S)-2-(cyclopropanecarbonylamino)-3-(cyclopropylmethylcarbamoyl)-4,5,6,7-tetrahydrobenzothiophen-5-yl]-1,2,4-triazol-3-yl]amino]-1-methyl-pyrazole-3-carboxylate]: < 1000 nM. As to `Cn1nc(C(F)(F)F)cc1Nc1nccn1[C@H]1CCc2sc(NC(=O)C3CC3)c(C(=O)NCC3CC3)c2C1` [Example 232, (5S)-2-(Cyclopropanecarbonylamino)-N-(cyclopropylmethyl)-5-[2-[[2-methyl-5-(trifluoromethyl)pyrazol-3-yl]amino]imidazol-1-yl]-4,5,6,7-tetrahydrobenzothiophene-3-carboxamide], the IC50 was < 1000 nM.

Take `Cn1nc(C(=O)O)cc1Nc1nncn1[C@H]1CCc2sc(NC(=O)C3CC3)c(C(=O)NCC3CC3)c2C1` [Example 233, 5-[[4-[(5S)-2-(Cyclopropanecarbonylamino)-3-(cyclopropylmethylcarbamoyl)-4,5,6,7-tetrahydrobenzothiophen-5-yl]-1,2,4-triazol-3-yl]amino]-1-methyl-pyrazole-3-carboxylic acid]: the IC50 was < 1000 nM.

Values taken from patent US12018021B2 (UCB Biopharma SRL, priority 2018, dated 2024).
